Experiments:
[1] = Solution levels of terpenes in water (true solution by shear blending); format: physicochemical; conditions: maximum level solubilized in water by solution-forming shear blending
root-knot nematodes = assay: Nematicidal activity of high purity versus low purity citral; format: in vivo, root-knot nematode; conditions: average of four replicates
Protocol: Compositions of regular and technical ciral at 250 and 125 ppm were produced in 1% Tween 80 and incubated with root-knot nematodes a in the same way as previously described. Observations of the kill rate (percentage dead) were made at 21 and 42 hours.
The results are shown below in Table 13 and are the average of four replicates.

[2] = Baker's YP loading of different terpenes and terpene mixtures; format: physicochemical; design: key to Free Terpene: +: “free terpene” refers to the visible presence of terpene in the centrifuged reaction mixture; −: The absence of free terpene indicates complete absorption of the terpene by the particles; conditions: for Free Terpene: Baker's YP 250 mg/ml 500 μl; for Vol. Loaded μl: approximate maximal terpene loading in Baker's YP; for % Loaded w/w: maximal loading in Baker's YP, ratio of terpene loaded to particle present, weight for weight
Protocol: (§1) Increasing volumes of terpene emulsion were mixed with 250 mg/ml Baker's YP or 250 mg/ml SAF Mannan™ overnight at room temperature as shown in Tables 27 and 28. Samples were centrifuged at 14,000×g for 10 minutes and the appearance of free terpene floating on the aqueous layer was scored. The highest volume of terpene emulsion absorbed by Baker's YP or SAF Mannan™ as evidenced by the absence of free terpene was recorded as the volume of absorbed terpene emulsion. Colour of encapsulated terpenes in the pellet was recorded.
(§2) Percentage loaded represents a ratio of the amount of terpene loaded to the amount of particle present (weight for weight).

[3] = SAF Mannan loading of different terpenes and terpene mixtures; format: physicochemical; design: key to Free Terpene: +: “free terpene” refers to the visible presence of terpene in the centrifuged reaction mixture; −: The absence of free terpene indicates complete absorption of the terpene by the particles; key to Free Terpene: phase inversion remark: Inverted = Phase Inverted - solids floating on top - no free oil; W = white; Y = yellow; conditions: for Free Terpene: SAF Mannan 500 μl (250 mg/ml), overnight, room temperature; for Vol. loaded (maximal terpene loading in SAF Mannan): approximate maximal loading, volume of terpene emulsion absorbed by SAF Mannan; for % Loaded w/w (maximal terpene loading in SAF Mannan): ratio of amount of terpene loaded to amount of particle present (weight for weight); for Free Terpene: phase inversion remark: SAF Mannan 500 μl, second line of the Free Terpene cell
Protocol: as §1, §2

[4] = Terpene stability: yellow colored oxidation product (colour of encapsulated terpene pellet); format: physicochemical; design: key to Colour: W = white; Y = yellow; sl = slight; int = intermediate
Protocol: Loading reactions were set up as shown in Table 25 and left to incubate overnight. Samples were centrifuged at 14,000×g for 10 minutes and the appearance of free terpene floating on the aqueous layer and the color of the encapsulated terpenes in the pellet was scored. The highest volume of terpene absorbed by particles as evidenced by the absence of free terpene was recorded as the volume of absorbed terpene emulsion. The reactions were incubated for 1, 3, 6, 9 and 24 hours at room temperature or 37° C. After incubation samples were centrifuged at 14,000×g for 10 minutes and the appearance of free terpene floating on the aqueous layer was scored. The highest volume of terpene absorbed by the particles as evidenced by the absence of free terpene was recorded as the volume of absorbed terpene emulsion. Colour of the encapsulated pellet was scored at 24 hours. Increasing volumes of terpene emulsion were mixed with 250 mg/ml Baker's YP or 250 mg/ml SAF Mannan™ overnight at room temperature as shown in Tables 27 and 28. Samples were centrifuged at 14,000×g for 10 minutes and the appearance of free terpene floating on the aqueous layer was scored. The highest volume of terpene emulsion absorbed by Baker's YP or SAF Mannan™ as evidenced by the absence of free terpene was recorded as the volume of absorbed terpene emulsion. Colour of encapsulated terpenes in the pellet was recorded.

[5] = emulsion 15 μl, 1% Tween-80 485 μl
[6] = emulsion 37.5 μl, 1% Tween-80 462.5 μl
[7] = emulsion 75 μl, 1% Tween-80 425 μl
[8] = emulsion 150 μl, 1% Tween-80 350 μl
[9] = emulsion 225 μl, 1% Tween-80 275 μl
[10] = emulsion 450 μl, 1% Tween-80 50 μl
[11] = terpene emulsion vol 15, 1% Tween-80 485 μl
[12] = terpene emulsion vol 37.5, 1% Tween-80 462.5 μl
[13] = terpene emulsion vol 75, 1% Tween-80 425 μl
[14] = terpene emulsion vol 150, 1% Tween-80 350 μl
[15] = terpene emulsion vol 225, 1% Tween-80 275 μl
[16] = terpene emulsion vol 450, 1% Tween-80 50 μl
[17] = Table 27, Baker's YP, emulsion 15 μl
[18] = Table 27, Baker's YP, emulsion 37.5 μl
[19] = Table 27, Baker's YP, emulsion 75 μl
[20] = Table 27, Baker's YP, emulsion 112.5 μl
[21] = Table 27, Baker's YP, emulsion 150 μl
[22] = Table 27, Baker's YP, emulsion 225 μl
[23] = Table 27, Baker's YP, emulsion 450 μl
[24] = colour of encapsulated terpene in pellet, SAF Mannan 500 μl, terpene emulsion vol 15
[25] = colour of encapsulated terpene in pellet, SAF Mannan 500 μl, terpene emulsion vol 37.5
[26] = colour of encapsulated terpene in pellet, SAF Mannan 500 μl, terpene emulsion vol 75
[27] = colour of encapsulated terpene in pellet, SAF Mannan 500 μl, terpene emulsion vol 112.5
[28] = colour of encapsulated terpene in pellet, SAF Mannan 500 μl, terpene emulsion vol 150
[29] = colour of encapsulated terpene in pellet, SAF Mannan 500 μl, terpene emulsion vol 225
[30] = colour of encapsulated terpene in pellet, SAF Mannan 500 μl, terpene emulsion vol 450

Compound: C=C(C)C1CC=C(C)C(=O)C1 (stereo not shown) [Carvone]
- Solution Level [1]: 500 ppm

Compound: CC(C)=CCCC(C)=CC=O [Citral (80% pure), citral]
- average percentage dead (root-knot nematodes; 125 ppm in 1% Tween 80, 21 h): 29%
- average percentage dead (root-knot nematodes; 125 ppm in 1% Tween 80, 42 h): 27%
- average percentage dead (root-knot nematodes; 250 ppm in 1% Tween 80, 21 h): 89%
- average percentage dead (root-knot nematodes; 250 ppm in 1% Tween 80, 42 h): 96%

Compound: CC(C)=CCCC(C)=CC=O [Citral (98% pure), citral]
- average percentage dead (root-knot nematodes; 125 ppm in 1% Tween 80, 21 h): 23%
- average percentage dead (root-knot nematodes; 125 ppm in 1% Tween 80, 42 h): 22%
- average percentage dead (root-knot nematodes; 250 ppm in 1% Tween 80, 21 h): 87%
- average percentage dead (root-knot nematodes; 250 ppm in 1% Tween 80, 42 h): 87%

Compound: C=CCc1ccc(O)c(OC)c1 [Eugenol]
- Free Terpene [2, 5]: −
- Free Terpene [2, 6]: −
- Free Terpene [2, 7]: −
- Free Terpene [2, 8]: +
- Free Terpene [2, 9]: +
- Free Terpene [2, 10]: +
- Vol. Loaded μl [2]: 75 µL
- % Loaded w/w [2]: 67% w/w
- Free Terpene [3, 11]: −
- Free Terpene [3, 12]: −
- Free Terpene [3, 13]: −
- Free Terpene [3, 14]: +
- Free Terpene [3, 15]: +
- Free Terpene [3, 16]: +
- Vol. loaded (maximal terpene loading in SAF Mannan) [3]: 112.5 µL
- % Loaded w/w (maximal terpene loading in SAF Mannan) [3]: 100% w/w
- Colour [4, 17]: W
- Colour [4, 18]: W
- Colour [4, 19]: W
- Colour [4, 20]: W
- Colour [4, 21]: W
- Colour [4, 22]: W
- Colour [4, 23]: W
- Colour [4, 24]: W
- Colour [4, 25]: W
- Colour [4, 26]: W
- Colour [4, 27]: W
- Colour [4, 28]: W
- Colour [4, 29]: W
- Colour [4, 30]: W

Compound: CC(C)=CCC/C(C)=C/CO [Geraniol]
- Solution Level [1]: 500 ppm
- Free Terpene [2, 5]: −
- Free Terpene [2, 6]: −
- Free Terpene [2, 7]: −
- Free Terpene ([2]; emulsion 112.5 μl, 1% Tween-80 387.5 μl): +
- Free Terpene [2, 8]: +
- Free Terpene [2, 9]: +
- Free Terpene [2, 10]: +
- Vol. Loaded μl [2]: 75 µL
- % Loaded w/w [2]: 67% w/w
- Free Terpene [3, 11]: −
- Free Terpene [3, 12]: −
- Free Terpene [3, 13]: −
- Free Terpene ([3]; terpene emulsion vol 112.5, 1% Tween-80 387.5 μl): −
- Free Terpene [3, 14]: −
- Free Terpene [3, 15]: −
- Free Terpene [3, 16]: +
- Free Terpene: phase inversion remark ([3]; terpene emulsion vol 225): Inverted
- Free Terpene: phase inversion remark ([3]; terpene emulsion vol 450): Inverted
- Vol. loaded (maximal terpene loading in SAF Mannan) [3]: 150 µL
- % Loaded w/w (maximal terpene loading in SAF Mannan) [3]: 133% w/w
- Colour [4, 17]: W
- Colour [4, 18]: W
- Colour [4, 19]: W
- Colour [4, 20]: W
- Colour [4, 21]: W
- Colour [4, 22]: W
- Colour [4, 23]: W
- Colour [4, 24]: W
- Colour [4, 25]: W
- Colour [4, 26]: W
- Colour [4, 27]: W
- Colour [4, 28]: W
- Colour [4, 29]: W
- Colour [4, 30]: W

Compound: CC(=O)/C=C/C1=C(C)CCCC1(C)C [b-ionone]
- Solution Level [1]: 500 ppm

Compound: Terpeniol
- Solution Level [1]: 500 ppm
